Measurements: ChEMBL document CHEMBL4020750 (Bioorg Med Chem Lett, 2017)
pEC50, pIC50: −log10 of the molar value.

Tests used:
Trypanosoma brucei = assay: Antitrypanosomal activity against Trypanosoma brucei 427 bloodstream forms after 48 hrs by alamar blue assay; type: functional; conditions: Trypanosoma brucei, 427, 48 h; for pEC50: read-out: EC50; for EC50: read-out: pEC50 (converted)
[1] = Inhibition of Trypanosoma brucei methionyl tRNA synthetase using L-methionine as substrate preincubated for 15 mins followed by substrate addition measured after 120 mins in presence of ATP by Kinase Glo chemiluminescence assay
[2] = AUC in mouse at 50 mg/kg, administered through oral gavage by LC-MS analysis; type: ADME, organism-based; conditions: in vivo
[3] = Cytotoxicity against human CRL8155 cells after 48 hrs by alamar blue assay; type: cell-based; conditions: crl8155, 48 h
HepG2 = assay: Cytotoxicity against human HepG2 cells after 48 hrs by alamar blue assay; type: cell-based; conditions: hepg2, 48 h
[4] = Cmax in mouse at 50 mg/kg, administered through oral gavage by LC-MS analysis; type: ADME, organism-based; design: dose 50 mg/kg, route oral; conditions: in vivo

Structure (SMILES)	pEC50 (Trypanosoma brucei)	pIC50 [1]	AUC [2]	EC50 (Trypanosoma brucei)	Cmax [4]	CC50 [3]	CC50 (HepG2)
C=CCOc1c(Cl)cc(Cl)cc1CN[C@H]1CCCN(c2nc3nc(Cl)ccc3[nH]2)C1	6.49	> 7.30					
CCNc1c(Cl)cc(Cl)cc1CN[C@H]1CCCN(c2nc3nc(Cl)ccc3[nH]2)C1	6.44	> 7.30					
COc1c(Cl)cc(Cl)cc1CN[C@H]1CCCN(c2nc3nc(Cl)ccc3[nH]2)C1	6.45	> 7.30					
CN(CCNC(CO)c1cc(Cl)cc(Cl)c1)c1nc2nc(Cl)ccc2[nH]1 (configuration not stated)	6.00	7.00					
Clc1cc(Cl)c(OCC2CC2)c(CN[C@H]2CCCN(c3nc4nc(Cl)ccc4[nH]3)C2)c1	6.29	> 7.30					
CCOc1c(Br)cc(Br)cc1CN[C@H]1CCCN(c2nc3nc(Cl)ccc3[nH]2)C1	7.40	> 7.30	3.03 µM·h	0.0398 µM	2.1 µM	10.5 µM	18.7 µM
CCOc1c(Br)cc(Cl)cc1CN[C@H]1CCCN(c2nc3nc(Cl)ccc3[nH]2)C1	6.64	> 7.30					
CCCOc1c(Cl)cc(Cl)cc1CN[C@H]1CCCN(c2nc3nc(Cl)ccc3[nH]2)C1	6.08	> 7.30					
Oc1c(Cl)cc(Cl)cc1CN[C@H]1CCCN(c2nc3nc(Cl)ccc3[nH]2)C1	6.62	> 7.30					

More lines, in order of rising pEC50 (Trypanosoma brucei), values ahead:

pEC50 (Trypanosoma brucei)	pIC50 [1]	AUC [2]	EC50 (Trypanosoma brucei)	Cmax [4]	Structure (SMILES)	CC50 [3]	CC50 (HepG2)
5.28	7.07				COC(=O)C(NCCN(C)c1nc2nc(Cl)ccc2[nH]1)c1cc(Cl)cc(Cl)c1 (configuration not stated)		
5.35	7.12				CN(CCNC(C(N)=O)c1cc(Cl)cc(Cl)c1)c1nc2nc(Cl)ccc2[nH]1 (configuration not stated)		
5.51	6.41				Clc1cc(Cl)c(OC2CC2)c(CN[C@H]2CCCN(c3nc4nc(Cl)ccc4[nH]3)C2)c1		
5.77	6.52				CC(C)Oc1c(Cl)cc(Cl)cc1CN[C@H]1CCCN(c2nc3nc(Cl)ccc3[nH]2)C1		
6.45	> 7.30				Clc1cc(Cl)c(Cl)c(CN[C@H]2CCCN(c3nc4nc(Cl)ccc4[nH]3)C2)c1		
6.48	> 7.30				COc1c(Br)cc(Br)cc1CN[C@H]1CCCN(c2nc3nc(Cl)ccc3[nH]2)C1		
6.50	> 7.30				CCOc1c(Cl)cc(Cl)cc1CNCCN(C)c1nc2nc(Cl)ccc2[nH]1		
6.95	> 7.30				N#Cc1cc(Cl)cc(CN[C@H]2CCCN(c3nc4nc(Cl)ccc4[nH]3)C2)c1		
6.95	> 7.30				CCOc1c(Cl)cc(Cl)cc1CN[C@H]1CCCN(c2nc3nc(Cl)ccc3[nH]2)C1		
7.07	> 7.30		0.0794 µM		Clc1ccc2nc(N3CCC[C@H](NCc4cc(Br)cc(Br)c4)C3)[nH]c2n1	47.6 µM	39.1 µM
7.15	> 7.30	78.1 µM·h	0.0631 µM	19.2 µM	Clc1cc(Br)cc(CN[C@H]2CCCN(c3nc4nc(Cl)ccc4[nH]3)C2)c1	43 µM	> 50 µM
7.24	7.05	15.8 µM·h	0.0501 µM	14.7 µM	Clc1cc(Cl)c2c(c1)C(N[C@H]1CCCN(c3nc4nc(Cl)ccc4[nH]3)C1)CCN2 (some centres not stated)	19 µM	40.2 µM
8.40	> 7.30	2.33 µM·h	0.00398 µM	1.3 µM	CN(CCN[C@@H]1CCNc2c(Cl)cc(Cl)cc21)c1nc2nc(Cl)ccc2[nH]1	18.5 µM	30.6 µM
